Laboratory results published in patent publication US7855177B1, “Methods and kits for preventing hypoglycemia” (Cebix Inc., priority 2009, dated 2010).

Assays:
[1] = Phase II trial: C-peptide plasma levels (time-resolved fluoroimmunoassay); assay type: in vivo, human
Procedure: The sampling of C-peptide in plasma at visits 2 and 4 coincided with the clinical visit and the time between the most recent administration of the trial drug and sampling varied between patients. Thereby, the result of C-peptide concentrations in plasma was less suitable for pharmacokinetic evaluations, but the results contributed to the assessment of treatment compliance.
C-peptide plasma levels were measured at baseline, and after 3 and 6 months of treatment. Analysis was performed by the Department of Clinical Chemistry Karolinska University Hospital, Solna using a time-resolved fluoroimmunoassay (AutoDelfia, Wallac Oy, Turku, Finland). […] The plasma levels of C-peptide attained in this study ranged from about 0.2 nM to a maximum of about 6 nM in the high dose group.
C-peptide plasma levels were also measured pre-dosing in the morning in 22 randomly selected patients at the Karolinska Hospital after 4.5 months of study treatment (visit 3). As compared to the C-peptide concentration at baseline, the C-peptide plasma level at this visit was unchanged in the placebo-treated patients (0±0.008 nmoL/L; n=10), increased by 0.045±0.092 nmoL/L in the low-dose C-peptide group (n=8) and increased by 0.13±0.083 nmoL/L in the high-dose C-peptide group (n=4).

[2] = tested on: type 1 diabetes patients with peripheral neuropathy; conditions: in vivo
Procedure: The safety measurements comprised collection of AEs, spontaneously reported by the patient or recorded by the investigator at each clinical visit. Review of laboratory investigations, vital signs, and physical examinations was performed at the S/B visit, visit 2, and at end of study (visit 4). ECG was performed at the S/B visit and at visit 4.
An AE was classified as “unexpected event” (i.e., if not specifically listed in the Investigator's Brochure) in terms of nature, severity, or frequency. All AEs, including intercurrent illnesses and increased severity or frequency of sign/symptoms of a concomitant disease was reported and documented as described below. AEs were documented on an “Adverse Event/Serious Adverse Event” page of the CRF and in the patient's medical records. Any AE occurring at any time after the end of the study, considered to be caused by the study medication—and therefore a possible adverse drug reaction—was reported to the sponsor.
The period of observation for AEs extended from the time the patient started on trial medication until end of the study. AEs were divided into the categories “serious” and “non-serious”. This determined the procedure used to report/document the AE.
Regardless of the classification of an AE as serious or non-serious (see above), its severity was assessed as mild, moderate, or severe, according to medical criteria alone:
Descriptive statistics were used for safety variables. For lab parameters summary statistics were presented as change from baseline and between doses. The changes from baseline were calculated and compared with normal ranges. The safety analysis set included all patients who obtained at least one dose of the investigational drug. AEs were coded according to the MedDRA dictionary. The frequencies of AEs are tabulated by body system and included/preferred term.

[3] = tested on: type 1 diabetes patients with peripheral neuropathy; assay: Phase II trial: clinical laboratory evaluation (hematology, blood chemistry, urinalysis); assay type: in vivo, human; conditions: following the study treatment
From the text: Hematology: hemoglobin, hematocrit, mean cell volume, leukocytes, platelets, differential count
Blood chemistry: sodium, potassium, C-reactive protein (CRP), alanine transaminase, aspartate transaminase, serum creatinine, albumin
Urinanalysis: protein, blood, nitrite
Before starting the study, the investigator supplied the Sponsor with a list of the normal laboratory ranges and units of measurement for the laboratory variables to be determined during the study at the site. All abnormal laboratory (those out of the normal range) values required comments on the CRF, regardless of the clinical significance: […]

[4] = tested on: C-peptide antibodies; assay: Phase II trial: antibody formation against C-peptide (ELISA); assay type: in vivo, human; conditions: baseline and after 3 and 6 months of C-peptide treatment
From the text: C-peptide plasma samples, C-peptide antibodies, and markers for atherosclerosis were processed (centrifuged, etc.) and stored frozen until transport to a central lab. HLA typing samples were shipped to a central lab for processing and storage until analysis. All samples there were labelled uniquely, including information about screening number and sample time.
Samples for the assessment of antibody formation were collected at baseline and at visits 2 and 4. An appropriate enzyme-linked immunoabsorbant assay (ELISA) method was developed and assessments carried out.

## CC(C)C[C@H](NC(=O)[C@H](C)NC(=O)[C@H](CC(C)C)NC(=O)[C@@H]1CCCN1C(=O)[C@H](CCC(N)=O)NC(=O)[C@H](CC(C)C)NC(=O)[C@H](CO)NC(=O)CNC(=O)[C@H](C)NC(=O)CNC(=O)[C@@H]1CCCN1C(=O)CNC(=O)CNC(=O)CNC(=O)[C@H](CC(C)C)NC(=O)[C@H](CCC(=O)O)NC(=O)[C@@H](NC(=O)[C@H](CCC(N)=O)NC(=O)CNC(=O)[C@@H](NC(=O)[C@H](CCC(N)=O)NC(=O)[C@H](CC(C)C)NC(=O)[C@H](CC(=O)O)NC(=O)[C@H](CCC(=O)O)NC(=O)[C@H](C)NC(=O)[C@@H](N)CCC(=O)O)C(C)C)C(C)C)C(=O)N[C@@H](CCC(=O)O)C(=O)NCC(=O)N[C@@H](CO)C(=O)N[C@@H](CC(C)C)C(=O)N[C@@H](CCC(N)=O)C(=O)O [C-peptide]
[1]; high dose 1,500 nmoL/24 h S.C., expected
  expected concentrations relative to the low dose regimen: ~3 times
[1]; high-dose C-peptide group, n=4, 4.5 months (visit 3)
  increase of pre-dosing morning C-peptide plasma level vs baseline: 0.13 ± 0.083 nmol/L
[1]; low dose 500 nmoL/24 h S.C., 4 times daily, expected
  expected physiological mean plasma concentration: ~1 nmoL/L
[1]; low-dose C-peptide group, n=8, 4.5 months (visit 3)
  increase of pre-dosing morning C-peptide plasma level vs baseline: 0.045 ± 0.092 nmol/L
[2]
  AEs possibly/probably related to the study drug: 8
  Acute HIV infection, number of AEs: 1
  Infections and infestations: Acute HIV infection, treatment emergent AE intensity (number of incidences): M (1)
  Infections and infestations: Herpes zoster, treatment emergent AE intensity (number of incidences): M (1)
  Nasopharyngitis, number of AEs: 23
[3]
  changes in laboratory variables: no significant changes in any of the variables
[4]
  reactivity (antibodies) to C-peptide: no or very weak reactivity
